Values joined by “and” are separate entries in the source; they are usually repeats but may differ in a detail not shown here. Equal entries are not always repeated.
Test system: 377384-186-R-J1-PDC complex spheroid viability
Test: Anticancer human tumor 377384-186-R-J1-PDC patient-derived pancreatic carcinoma cell line growth inhibition [CLK]
Settings: for viability, T/C: stronger effect = lower value
In short: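 Patient-derived tumor cells grown as complex spheroids with HUVEC endothelial cells and mesenchymal stem cells, treated with drug combinations. Concentrations descend in half-log steps from near clinical Cmax, or from 10 microM if Cmax unknown.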

[1] = curve of first compound, second compound 0.0316 µM
[2] = curve of first compound, second compound 0.1 µM
[3] = curve of first compound, second compound 0.316 µM
[4] = curve of first compound, second compound 1 µM
[5] = curve of first compound, second compound 3.16 µM
[6] = curve of first compound, second compound 10 µM
[7] = second compound 0.0316 µM, first compound 0.0316 µM
[8] = second compound 0.0316 µM, first compound 0.1 µM
[9] = second compound 0.0316 µM, first compound 0.316 µM
[10] = second compound 0.0316 µM, first compound 1 µM
[11] = second compound 0.1 µM, first compound 0.0316 µM
[12] = second compound 0.1 µM, first compound 0.1 µM
[13] = second compound 0.1 µM, first compound 0.316 µM
[14] = second compound 0.1 µM, first compound 1 µM
[15] = second compound 0.316 µM, first compound 0.0316 µM
[16] = second compound 0.316 µM, first compound 0.1 µM
[17] = second compound 0.316 µM, first compound 0.316 µM
[18] = second compound 0.316 µM, first compound 1 µM
[19] = second compound 1 µM, first compound 0.0316 µM
[20] = second compound 1 µM, first compound 0.1 µM
[21] = second compound 1 µM, first compound 0.316 µM
[22] = second compound 1 µM, first compound 1 µM
[23] = second compound 3.16 µM, first compound 0.0316 µM
[24] = second compound 3.16 µM, first compound 0.1 µM
[25] = second compound 3.16 µM, first compound 0.316 µM
[26] = second compound 3.16 µM, first compound 1 µM
[27] = second compound 10 µM, first compound 0.0316 µM
[28] = second compound 10 µM, first compound 0.1 µM
[29] = second compound 10 µM, first compound 0.316 µM
[30] = second compound 10 µM, first compound 1 µM
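Note: spheroids exposed to agents for 7 days before reading.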
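Throughout, for viability, T/C: luminescence signal used as a stand-in for viable cells.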

C=CC(=O)N1CCN(c2nc(=O)n(-c3c(C)ccnc3C(C)C)c3nc(-c4c(O)cccc4F)c(F)cc23)C(C)C1 (stereo unspecified) + CN1CCN(c2cc(C(=O)Nc3cc4cc(-c5cnn(C)c5)ccc4cn3)ccn2)CC1
IC50 [1]: > 10000 nM | IC50 [2]: > 10000 nM | IC50 [3]: < 31.6 nM | IC50 [4]: < 31.6 nM | IC50 [5]: < 31.6 nM | IC50 [6]: < 31.6 nM | viability, T/C [7]: 95.5% | viability, T/C [8]: 101% | viability, T/C [9]: 114% | viability, T/C [10]: 131% | viability, T/C (second compound 0.0316 µM, first compound 3.16 µM): 117% | viability, T/C (second compound 0.0316 µM, first compound 10 µM): 101% | viability, T/C [11]: 104% | viability, T/C [12]: 92.8% | viability, T/C [13]: 110% | viability, T/C [14]: 112% | viability, T/C (second compound 0.1 µM, first compound 3.16 µM): 116% | viability, T/C (second compound 0.1 µM, first compound 10 µM): 88.3% | viability, T/C [15]: 27.9% | viability, T/C [16]: 35.2% | viability, T/C [17]: 38.1% | viability, T/C [18]: 41.4% | viability, T/C (second compound 0.316 µM, first compound 3.16 µM): 37.6% | viability, T/C (second compound 0.316 µM, first compound 10 µM): 24.7% | viability, T/C [19]: 1.29% | viability, T/C [20]: 1.17% | viability, T/C [21]: 1.31% | viability, T/C [22]: 1.24% | viability, T/C (second compound 1 µM, first compound 3.16 µM): 2.37% | viability, T/C (second compound 1 µM, first compound 10 µM): 2.29% | viability, T/C [23]: 0.53% | viability, T/C [24]: 0.78% | viability, T/C [25]: 0.7% | viability, T/C [26]: 0.78% | viability, T/C (second compound 3.16 µM, first compound 3.16 µM): 1.84% | viability, T/C (second compound 3.16 µM, first compound 10 µM): 3.69% | viability, T/C [27]: 0.44% | viability, T/C [28]: 0.59% | viability, T/C [29]: 1.65% | viability, T/C [30]: 0.86% | viability, T/C (second compound 10 µM, first compound 3.16 µM): 1.07% | viability, T/C (second compound 10 µM, first compound 10 µM): 0.98%

CC(CO)NC(=O)c1cc(-c2ccc(Cl)cc2)nn(-c2cnn(C)c2)c1=O (stereo unspecified)
viability, T/C (compound 0.0316 µM): 94.9% and 112% | viability, T/C (compound 0.1 µM): 101% and 85.5% | viability, T/C (compound 0.316 µM): 105% and 103% | viability, T/C (compound 1 µM): 102% and 82.1% | viability, T/C (compound 3.16 µM): 77.7% and 70.1% | viability, T/C (compound 10 µM): 39.5% and 45.9% | IC50 (curve of compound): 7290 nM and 8480 nM

CCc1c2c(nc3ccc(O)cc13)-c1cc3c(c(=O)n1C2)COC(=O)[C@]3(O)CC + CN1CCN(c2cc(C(=O)Nc3cc4cc(-c5cnn(C)c5)ccc4cn3)ccn2)CC1
IC50 [1]: < 3.16 nM | IC50 [2]: < 3.16 nM | IC50 [3]: < 3.16 nM | IC50 [4]: < 3.16 nM | IC50 [5]: < 3.16 nM | IC50 [6]: < 3.16 nM | viability, T/C (second compound 0.0316 µM, first compound 0.00316 µM): 38.2% | viability, T/C (second compound 0.0316 µM, first compound 0.01 µM): 16.4% | viability, T/C [7]: 9% | viability, T/C [8]: 3.5% | viability, T/C [9]: 2% | viability, T/C [10]: 0.73% | viability, T/C (second compound 0.1 µM, first compound 0.00316 µM): 31.7% | viability, T/C (second compound 0.1 µM, first compound 0.01 µM): 18.6% | viability, T/C [11]: 8.13% | viability, T/C [12]: 3.62% | viability, T/C [13]: 1.47% | viability, T/C [14]: 0.71% | viability, T/C (second compound 0.316 µM, first compound 0.00316 µM): 18.3% | viability, T/C (second compound 0.316 µM, first compound 0.01 µM): 15% | viability, T/C [15]: 7.22% | viability, T/C [16]: 4.37% | viability, T/C [17]: 1.79% | viability, T/C [18]: 0.66% | viability, T/C (second compound 1 µM, first compound 0.00316 µM): 0.56% | viability, T/C (second compound 1 µM, first compound 0.01 µM): 0.36% | viability, T/C [19]: 1.07% | viability, T/C [20]: 0.19% | viability, T/C [21]: 0.14% | viability, T/C [22]: 0.3% | viability, T/C (second compound 3.16 µM, first compound 0.00316 µM): 0.23% | viability, T/C (second compound 3.16 µM, first compound 0.01 µM): 0.3% | viability, T/C [23]: 0.53% | viability, T/C [24]: 0.25% | viability, T/C [25]: 0.38% | viability, T/C [26]: 0.85% | viability, T/C (second compound 10 µM, first compound 0.00316 µM): 0.27% | viability, T/C (second compound 10 µM, first compound 0.01 µM): 1.05% | viability, T/C [27]: 0.38% | viability, T/C [28]: 0.27% | viability, T/C [29]: 0.23% | viability, T/C [30]: 0.35%

Reference: PubChem BioAssay AID2060616 (Molecular Pharmacology Branch, DTP, NCI, 2025)
